Data taken from US20240116918A1, “SUBSTITUTED TRICYCLIC COMPOUND AS PRMT5 INHIBITOR AND USE THEREOF” (NANJING SANHOME PHARMACEUTICAL CO., LTD., priority 2019, published 2024).

What was measured:
MDA-MB-468 cells = assay: In vitro cell activity, MDA-MB-468 cells, CCK-8; assay type: cell-based; conditions: Homo sapiens, MDA-MB-468, 168 h, read-out: IC50 MDA-MB-468 Cell, triple negative breast cancer cells, 7 days
Experimental: Test compounds: the compounds of the present invention prepared in the above example. Each compound was formulated into a 10 mM stock solution with DMSO, and finally diluted into 8 concentrations for detection, with the final concentrations being 33333.00 nM, 6666.60 nM, 1333.32 nM, 266.66 nM, 53.33 nM, 10.67 nM, 2.13 nM, and 0.43 nM for experiments in Z-138 cells.
After thawing, the cryovial was taken out, and sterilized with an alcohol cotton ball, after which the cap was unscrewed. The cell fluid was drawn and injected into a centrifuge tube. 1 mL of L-15 medium containing 10% FBS was added, and mixed uniformly. The tube was placed in a centrifuge, and centrifuged at 1000 rpm for 5 min. Afterwards, the supernatant was discarded, and complete medium was added. The mixture was pipetted repeatedly until the cells were completely dispersed and resuspended. The mixture was inoculated in a petri dish at an appropriate concentration, and cultured in a CO2-free incubator at 37° C., and 95% humidified air.
The medium (Leibovitz's L-15 Medium+10% FBS+1% penicillin-streptomycin) was transferred to a 15 mL centrifuge tube, and centrifuged at 1000 rpm for 5 min. The supernatant was removed. The cells were resuspended in complete medium, and inoculated in a petri dish at the desired density. The dish was placed in a CO2-free incubator at 37° C., and 95% humid air. The culture medium was changed every 2-3 days or the passage was carried out, depending on the cell growth.
After passage, MDA-MB-468 cells were resuspended in complete medium at the corresponding density, 2000 cells/well, and inoculated in a 96-well culture plate. The wells at the outer circumference were filled with 200 μL PBS to prevent the culture conditions of the inner plate wells from being too different from each other due to the faster evaporation of medium at the edge. The leftmost column of the 60 inner wells were blank wells, which were not added with cells, but filled with equal volume of PBS. The remaining 54 wells were subjected to cell plating with a multichannel pipette, to each well was added 100 μL. The plate was placed in a CO2-free incubator and cultured at 37° C. for 24 h. […]
The first column of PBS was used as a blank control well, and 100 μL of CCK-8 was added synchronously thereto. […] The optimal detection time was determined according to the shade of color developed by CCK-8 (the optimal OD value for the DMSO group was about 1.0). […] The microplate reader software was opened, the detection parameters were adjusted, and the absorbance at 450 nm (OD value) was detected. The cover of the culture plate was removed, and the culture plate was directly placed horizontally in the plate groove to start reading. After the reading was finished, the program was saved, and the data was exported. […]

hERG potassium channel = hERG potassium channel (Homo sapiens (Human), UniProt Q12809); assay: Electrophysiological manual patch-clamp detection of effect on hERG potassium channel
Sequence of hERG potassium channel (Q12809 whole entry): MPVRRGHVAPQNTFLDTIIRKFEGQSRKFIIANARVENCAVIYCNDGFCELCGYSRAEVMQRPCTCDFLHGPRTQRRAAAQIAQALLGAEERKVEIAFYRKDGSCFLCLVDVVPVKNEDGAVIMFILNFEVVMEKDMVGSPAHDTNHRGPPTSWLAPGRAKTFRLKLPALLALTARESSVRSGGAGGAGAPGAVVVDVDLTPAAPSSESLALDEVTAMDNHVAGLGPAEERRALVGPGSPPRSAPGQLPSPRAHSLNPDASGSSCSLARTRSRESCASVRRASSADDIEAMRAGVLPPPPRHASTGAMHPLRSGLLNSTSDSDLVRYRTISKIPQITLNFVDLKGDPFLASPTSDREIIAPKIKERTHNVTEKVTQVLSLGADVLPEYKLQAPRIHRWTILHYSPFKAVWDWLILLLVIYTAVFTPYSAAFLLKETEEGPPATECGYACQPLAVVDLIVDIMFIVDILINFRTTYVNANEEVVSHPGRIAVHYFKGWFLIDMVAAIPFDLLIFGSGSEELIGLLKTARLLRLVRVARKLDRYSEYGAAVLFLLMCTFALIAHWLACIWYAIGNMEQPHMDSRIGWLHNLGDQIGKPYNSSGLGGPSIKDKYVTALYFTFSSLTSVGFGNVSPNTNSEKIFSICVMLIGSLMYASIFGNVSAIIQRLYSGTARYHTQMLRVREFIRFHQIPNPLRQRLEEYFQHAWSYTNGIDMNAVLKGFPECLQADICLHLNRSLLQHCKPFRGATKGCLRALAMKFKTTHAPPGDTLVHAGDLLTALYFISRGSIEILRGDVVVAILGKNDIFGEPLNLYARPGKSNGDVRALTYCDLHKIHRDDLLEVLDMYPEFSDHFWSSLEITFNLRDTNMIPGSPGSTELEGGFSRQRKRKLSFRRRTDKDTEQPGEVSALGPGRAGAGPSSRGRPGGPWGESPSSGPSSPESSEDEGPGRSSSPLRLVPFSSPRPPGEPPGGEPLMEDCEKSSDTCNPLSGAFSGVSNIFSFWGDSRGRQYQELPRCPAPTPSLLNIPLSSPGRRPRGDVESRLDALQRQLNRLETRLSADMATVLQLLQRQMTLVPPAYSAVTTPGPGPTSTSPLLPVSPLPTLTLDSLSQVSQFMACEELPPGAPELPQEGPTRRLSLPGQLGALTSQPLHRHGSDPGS
Experimental: Preparation of test solvents: preparation of extracellular fluid (mM): 137 NaCl, 4 KCl, 1.8 CaCl2, 1 MgCl2, 10 glucose and 10 HEPES (pH 7.4); preparation of intracellular fluid (mM): 130 KCl, 1 MgCl2, 5 EGTA, 5 MgATP and 10 HEPES (pH 7.2); preparation of negative control: extracellular fluid+0.3% DMSO; positive control: quinidine.
Compound treatment: The compound was weighed and dissolved in DMSO to prepare a 10 mM stock solution, which was diluted with DMSO to form secondary stock solutions with concentrations of 3.3, 1.1, 0.37 and 0.12 mM. 90 μL each of the stock solution and the secondary stock solutions was diluted into 30 mL of extracellular fluid for electrophysiological detection. The final concentrations of the compound were 30, 10, 3.3, 1.1 and 0.37 μM, and the final concentration of DMSO was 3:1000.
Stably transfected cell culture: The cell line was originated from HEK-293 cells overexpressing hERG potassium ion channel. […] The cells were cultured in an incubator at 37° C. and 5% CO2. When the cell density reaches 80% of the petri dish, the cells were first pre-washed with phosphate buffered saline (PBS), then digested with trypsin/EDTA for 2-3 min. Cell culture medium was added to stop the digestion. The cells were gently blown down and transferred to a centrifuge tube, and centrifuged at 1000 rpm for 3 min. The supernatant was discarded, cell culture medium was added, and the cells were mixed uniformly by gentle tapping. After that, the mixture was transferred to a petri dish for subculture, or the cells were dripped on a round glass slide and placed on a petri dish for the cells to adhere for experiments.
Experiments on electrophysiological manual patch-clamp system: The stably transfected cells were inoculated on a glass slide with a cell density lower than 50%, and cultured overnight. The experimental cells were transferred to a bath of about 1 mL embedded in an inverted microscope platform, and the extracellular fluid was perfused at a perfusion rate of 2.7 mL/min. After 5 minutes of stabilization, the experiment was started. Membrane currents were recorded using HEKA EPC-10 patch clamp amplifier and [sequence] acquisition system. All the experiments were performed at room temperature (22-24° C.). Electrodes were drawn straight using P-97 microelectrode drawing instrument (BF150-110-10) in the experiments. The inner diameter of the electrode was 1-1.5 mm, and the pipette resistance after filling with the inner liquid was 2-4 MΩ. The electrophysiological stimulation scheme of hERG potassium channel included: first setting the membrane voltage at −80 mV, applying a stimulation to the cells at +20 mV voltage for 2 s to activate the hERG potassium channel, and then repolarizing to −50 mV for 5 s to generate an outward tail current. The stimulation frequency was once every 15 s. The current value was the peak value of the tail current. The channel currents were recorded in the whole-cell recording mode. Firstly, the extracellular fluid was perfused (about 2 mL per minute) while recording was continued. When the current was stabilized (the current decay (Run-Down) was less than 5% within 5 minutes), the peak value of the tail current was the control current value. Then, the extracellular fluid containing the drug to be tested was perfused while the recording was continued until the inhibitory effect of the drug on the hERG current reached a steady state. At this time, the peak value of the tail current was the current value after drug addition. […]

Row | IC50 (MDA-MB-468 cells) | Compound | IC50 (hERG potassium channel) | inhibitory effect on the hERG potassium channel (in words) (hERG potassium channel; conclusion from Table 4)
1 | 0.116 µM | CC(=O)N1CCC(Nc2cc(C(=O)NC[C@H](O)CN3CCc4ccccc4C3)ncn2)CC1 [Compound A, (S)-6-((1-Acetylpiperidin-4-yl)amino)-N-(3-(3,4-dihydroisoquinolin-2(1H)-yl)-2-hydroxypropyl)pyrimidine-4-carboxamide] |  | 
2 | 0.0413 µM | CC(=O)N1CCC(Nc2ccc3c(c2)C(=O)N(C[C@H](O)CN2CCc4ccccc4C2)CC32CC2)CC1 [Compound B, (R)-7′-((1-Acetylpiperidin-4-yl)amino)-2′-(3-(3,4-dihydroisoquinolin-2(1H)-yl)-2-hydroxypropyl)-2′,3′-dihydro-1′H-spiro[cyclopropane-1,4′-isoquinolin]-1′-one, reference compound] | 2.71 µM | 
3 | 0.0116 µM | CC(=O)N1CCC(Nc2cc3c(cn2)C2(CC2)CN(C[C@H](O)CN2CCc4ccccc4C2)C3=O)CC1 [Example 1, (R)-7′-((1-acetylpiperidin-4-yl)amino)-2′-(3-(3,4-dihydroisoquinolin-2(1H)-yl)-2-hydroxypropyl)-2′,3′-dihydro-1′H-spiro[cyclopropane-1,4′-[2,6]naphthyridin]-1′-one] | 5.24 µM | weak inhibitory effect

Row | Compound | IC50 (MDA-MB-468 cells) | IC50 (hERG potassium channel) | inhibitory effect on the hERG potassium channel (in words) (hERG potassium channel; conclusion from Table 4)
4 | CC(=O)N1CC2(CC(Nc3cc4c(cn3)C3(CC3)CN(C[C@H](O)CN3CCc5ccccc5C3)C4=O)C2)C1 [Example 2, (R)-7′-((2-acetyl-2-azaspiro[3.3]hept-6-yl)amino)-2′-(3-(3,4-dihydroisoquinolin-2(1H)-yl)-2-hydroxypropyl)-2′,3′-dihydro-1′H-spiro[cyclopropane-1,4′-[2,6]naphthyridin]-1-one] | 0.00735 µM | 15.1 µM | 
